Patent publication US11786534B2 (TAIHO PHARMACEUTICAL CO., LTD., priority 2019, dated 2023)

What was measured:
[1] = target: T1, human EGFR (L858R/T790M/C797S) (Homo sapiens, UniProt P00533, C797S/L858R/T790M); assay: Inhibitory activity against EGFR (L858R/T790M/C797S) kinase; type: biochemical
T1 construct: made in house; host or cells: Sf9 insect cells, baculovirus
Outline: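 GST-tagged cytoplasmic domain of human EGFR L858R/T790M/C797S, expressed in Sf9 insect cells via baculovirus and glutathione-purified. Kinase reaction run at 0.5 μM ATP final; IC50 (nM) determined per compound.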

human EGFR (L858R/C797S) = target: T2, human EGFR (L858R/C797S) (Homo sapiens, UniProt P00533, C797S/L858R); assay: Inhibitory activity against EGFR (L858R/C797S) kinase; type: biochemical; details: Test Example 1, Table 5; ATP 4 μM, 90 minutes
T2 construct: purchased SignalChem
T2 sequence (P00533 25-1210 C797S/L858R): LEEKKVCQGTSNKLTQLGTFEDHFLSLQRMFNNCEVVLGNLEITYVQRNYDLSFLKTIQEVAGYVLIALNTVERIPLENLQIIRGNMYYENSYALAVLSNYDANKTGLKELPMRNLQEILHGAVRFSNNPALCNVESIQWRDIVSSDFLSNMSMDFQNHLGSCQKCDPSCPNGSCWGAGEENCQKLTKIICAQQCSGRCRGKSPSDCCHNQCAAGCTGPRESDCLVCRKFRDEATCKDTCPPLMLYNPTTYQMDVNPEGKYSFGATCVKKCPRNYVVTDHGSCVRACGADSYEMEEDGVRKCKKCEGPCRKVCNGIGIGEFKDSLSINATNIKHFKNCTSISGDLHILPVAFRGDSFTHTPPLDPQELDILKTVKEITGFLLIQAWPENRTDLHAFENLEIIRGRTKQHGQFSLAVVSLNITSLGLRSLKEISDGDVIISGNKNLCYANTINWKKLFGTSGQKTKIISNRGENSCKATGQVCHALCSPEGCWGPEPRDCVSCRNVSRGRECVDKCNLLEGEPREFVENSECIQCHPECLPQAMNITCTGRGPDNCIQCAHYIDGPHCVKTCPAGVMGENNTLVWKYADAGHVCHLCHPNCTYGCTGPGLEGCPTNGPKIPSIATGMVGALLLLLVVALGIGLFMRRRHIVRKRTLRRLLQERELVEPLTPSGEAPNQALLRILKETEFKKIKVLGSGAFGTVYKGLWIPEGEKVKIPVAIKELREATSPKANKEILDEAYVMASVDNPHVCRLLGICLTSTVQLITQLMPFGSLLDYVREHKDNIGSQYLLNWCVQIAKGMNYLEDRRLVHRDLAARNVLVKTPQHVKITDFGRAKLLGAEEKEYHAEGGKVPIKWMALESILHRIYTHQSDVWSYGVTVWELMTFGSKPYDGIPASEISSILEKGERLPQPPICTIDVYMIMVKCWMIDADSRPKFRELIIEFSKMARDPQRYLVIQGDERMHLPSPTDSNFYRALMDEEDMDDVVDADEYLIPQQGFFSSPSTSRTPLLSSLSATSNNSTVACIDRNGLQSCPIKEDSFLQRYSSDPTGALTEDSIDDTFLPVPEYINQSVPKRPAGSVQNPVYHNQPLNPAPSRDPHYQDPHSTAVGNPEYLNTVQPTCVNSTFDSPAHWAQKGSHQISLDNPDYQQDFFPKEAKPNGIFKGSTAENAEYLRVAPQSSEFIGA
Outline: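 Purified recombinant human EGFR (C797S/L858R) kinase, final ATP 4 μM, 90-minute kinase reaction, otherwise per the EGFR (d746-750/C797S) protocol. IC50 (nM) determined from inhibition data.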

[2] = Test Example 1, Table 3, ATP 0.5 μM

T1 sequence (P00533 with tags, fused parts or gaps T790M/C797S/L858R): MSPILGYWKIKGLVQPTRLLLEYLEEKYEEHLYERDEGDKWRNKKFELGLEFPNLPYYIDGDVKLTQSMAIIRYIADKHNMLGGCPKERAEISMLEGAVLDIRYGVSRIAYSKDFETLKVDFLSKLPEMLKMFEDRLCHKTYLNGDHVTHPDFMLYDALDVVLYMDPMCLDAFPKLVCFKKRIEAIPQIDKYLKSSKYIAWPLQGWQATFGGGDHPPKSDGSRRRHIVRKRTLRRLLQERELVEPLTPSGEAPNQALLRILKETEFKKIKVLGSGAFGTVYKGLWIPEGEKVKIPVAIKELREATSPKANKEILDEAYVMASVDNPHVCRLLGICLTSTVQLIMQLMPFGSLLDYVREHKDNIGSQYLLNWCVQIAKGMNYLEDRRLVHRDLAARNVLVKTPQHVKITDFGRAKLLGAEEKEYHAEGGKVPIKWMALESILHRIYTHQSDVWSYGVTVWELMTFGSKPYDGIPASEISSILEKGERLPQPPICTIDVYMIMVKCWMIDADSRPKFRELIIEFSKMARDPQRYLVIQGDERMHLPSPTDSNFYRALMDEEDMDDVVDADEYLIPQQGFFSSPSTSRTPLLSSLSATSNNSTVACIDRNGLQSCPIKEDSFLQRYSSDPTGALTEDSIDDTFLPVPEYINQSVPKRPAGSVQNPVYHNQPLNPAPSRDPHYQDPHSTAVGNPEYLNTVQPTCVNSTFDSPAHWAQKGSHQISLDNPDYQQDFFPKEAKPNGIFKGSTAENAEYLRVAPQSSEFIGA

Row | IC50 [1, 2] | IC50 (human EGFR (L858R/C797S)) | IC50 ([1]; Test Example 3, Table 9; same procedures as 2) in Test Example 1) | Compound
1 | 470 pM | 630 pM |  | C#Cc1c(-c2cnc3ccccc3c2)c2c(N)ncnc2n1C12CCC(NC(=O)c3cccnn3)(CC1)C2 [Example 49]
2 | 690 pM | 1200 pM |  | C#Cc1c(-c2cnc3ccccc3c2)c2c(N)ncnc2n1C12CCC(NC(=O)c3nccs3)(CC1)C2 [Example 53]
3 | < 300 pM | 460 pM |  | C#Cc1c(-c2cnc3ccccc3c2)c2c(N)ncnc2n1C12CCC(NC(=O)c3cncnc3)(CC1)C2 [Example 2, N-(4-(4-Amino-6-ethynyl-5-(quinolin-3-yl)-7H-pyrrolo[2,3-d]pyrimidin-7-yl)bicyclo-[2.2.1]heptan-1-yl)pyrimidine-5-carboxamide]
4 |  |  | < 300 pM | C#Cc1c(-c2cnc3ccccc3c2)c2c(N)ncnc2n1C12CCC(NC(=O)[C@@H]3CN(C)CCO3)(CC1)C2 [Example 63, (S)-N-(4-(4-Amino-6-ethynyl-5-(quinolin-3-yl)-7H-pyrrolo[2,3-d]pyrimidin-7-yl) -bicyclo[2.2.1]heptan-1-yl)-4-methylmorpholine-2-carboxamide]
5 | 440 pM | 1200 pM |  | C#Cc1c(-c2cnc3ccccc3c2)c2c(N)ncnc2n1C12CCC(NC(=O)c3ccnn3C3CC3)(CC1)C2 [Example 20, N-(4-(4-Amino-6-ethynyl-5-(quinolin-3-yl)-7H-pyrrolo[2,3-d]pyrimidin-7-yl)bicyclo-[2.2.1]heptan-1-yl)-1-cyclopropyl-1H-pyrazole-5-carboxamide]
6 | 390 pM | 1900 pM |  | C#Cc1c(-c2cnc3ccccc3c2)c2c(N)ncnc2n1C12CCC(NC(=O)c3ccco3)(CC1)C2 [Example 41]
7 | 500 pM | 840 pM |  | C#Cc1c(-c2cnc3ccccc3c2)c2c(N)ncnc2n1C12CCC(NC(=O)c3cncc(F)c3)(CC1)C2 [Example 35, N-(4-(4-Amino-6-ethynyl-5-(quinolin-3-yl)-7H-pyrrolo[2,3-d]pyrimidin-7-yl)-bicyclo-[2.2.1]heptan-1-yl)-5-fluoronicotinamide]
8 | 460 pM | 2800 pM |  | C#Cc1c(-c2cnc3ccccc3c2)c2c(N)ncnc2n1C12CCC(NC(=O)c3ccccc3)(CC1)C2 [Example 1, N-(4-(4-Amino-6-ethynyl-5-(quinolin-3-yl)-7H-pyrrolo[2,3-d]pyrimidin-7-yl)bicyclo-[2.2.1]heptan-1-yl)benzamide]
9 | 410 pM | 430 pM |  | C#Cc1c(-c2cnc3ccccc3c2)c2c(N)ncnc2n1C12CCC(NC(=O)c3ncco3)(CC1)C2 [Example 46]
10 |  | 690 pM |  | C#Cc1c(-c2cnc3ccccc3c2)c2c(N)ncnc2n1C12CCC(CNC(=O)c3ccnn3C)(CC1)C2 [Example 13, N-((4-(4-Amino-6-ethynyl-5-(quinolin-3-yl)-7H-pyrrolo[2,3-d]pyrimidin-7-yl)bicyclo-[2.2.1]heptan-1-yl)methyl)-1-methyl-1H-pyrazole-5-carboxamide]
11 | 560 pM | 990 pM |  | C#Cc1c(-c2cnc3ccccc3c2)c2c(N)ncnc2n1C12CCC(NC(=O)c3noc(C)n3)(CC1)C2 [Example 36, N-(4-(4-Amino-6-ethynyl-5-(quinolin-3-yl)-7H-pyrrolo[2,3-d]pyrimidin-7-yl)-bicyclo-[2.2.1]heptan-1-yl)-5-methyl-1,2,4-oxadiazole-3-carboxamide]
12 | 360 pM | 1400 pM |  | C#Cc1c(-c2cnc3ccccc3c2)c2c(N)ncnc2n1C12CCC(NC(C)=O)(CC1)C2 [Example 39, N-(4-(4-Amino-6-ethynyl-5-(quinolin-3-yl)-7H-pyrrolo[2,3-d]pyrimidin-7-yl)-bicyclo-[2.2.1]heptan-1-yl)acetamide]
13 | 420 pM | 840 pM |  | C#Cc1c(-c2cnc3ccccc3c2)c2c(N)ncnc2n1C12CCC(NC(=O)c3nccn3C)(CC1)C2 [Example 23, N-(4-(4-Amino-6-ethynyl-5-(quinolin-3-yl)-7H-pyrrolo[2,3-d]pyrimidin-7-yl)bicyclo-[2.2.1]heptan-1-yl)-1-methyl-1H-imidazole-2-carboxamide]
14 | 470 pM | 2400 pM |  | C#Cc1c(-c2cnc3ccccc3c2)c2c(N)ncnc2n1C12CCC(NC(=O)C(F)F)(CC1)C2 [Example 27, N-(4-(4-Amino-6-ethynyl-5-(quinolin-3-yl)-7H-pyrrolo[2,3-d]pyrimidin-7-yl)bicyclo-[2.2.1]heptan-1-yl)-2,2-difluoroacetamide]
15 | 520 pM | 690 pM |  | C#Cc1c(-c2cnc3ccccc3c2)c2c(N)ncnc2n1C12CCC(NC(=O)c3cnc(C)cn3)(CC1)C2 [Example 37, N-(4-(4-Amino-6-ethynyl-5-(quinolin-3-yl)-7H-pyrrolo[2,3-d]pyrimidin-7-yl)-bicyclo-[2.2.1]heptan-1-yl)-5-methylpyrazine-2-carboxamide]
16 | 420 pM | 670 pM |  | C#Cc1c(-c2cnc3ccccc3c2)c2c(N)ncnc2n1C12CCC(NC(=O)c3cnns3)(CC1)C2 [Example 18, N-(4-(4-Amino-6-ethynyl-5-(quinolin-3-yl)-7H-pyrrolo[2,3-d]pyrimidin-7-yl)bicyclo-[2.2.1]heptan-1-yl)-1,2,3-thiadiazole-5-carboxamide]
17 |  | 1300 pM |  | C#Cc1c(-c2cnc3ccccc3c2)c2c(N)ncnc2n1C12CCC(CNC(=O)c3cnc(C)cn3)(CC1)C2 [Example 14, N-((4-(4-Amino-6-ethynyl-5-(quinolin-3-yl)-7H-pyrrolo[2,3-d]pyrimidin-7-yl)bicyclo-[2.2.1]heptan-1-yl)methyl)-5-methylpyrazine-2-carboxamide]
18 | < 300 pM | 600 pM |  | C#Cc1c(-c2cnc3ccccc3c2)c2c(N)ncnc2n1C12CCC(NC(=O)c3cnccn3)(CC1)C2 [Example 48]
19 | < 300 pM | 590 pM |  | C#Cc1c(-c2cnc3ccccc3c2)c2c(N)ncnc2n1C12CCC(NC(=O)c3ccnn3C)(CC1)C2 [Example 24, N-(4-(4-Amino-6-ethynyl-5-(quinolin-3-yl)-7H-pyrrolo[2,3-d]pyrimidin-7-yl)bicyclo-[2.2.1]heptan-1-yl)-1-methyl-1H-pyrazole-5-carboxamide]
20 | 43000 pM | 97000 pM |  | C#Cc1c(-c2cnc3ccccc3c2)c2c(N)ncnc2n1[C@@H]1CCN(C(=O)C=C)C1 [Comparative Example B, (R)-1-(3-(4-Amino-6-ethynyl-5-(quinolin-3-yl)-7H-pyrrolo[2,3-d]pyrimidin-7-yl) -pyrrolidin-1-yl)-prop-2-en-1-one, reference compound]
21 | < 300 pM | 370 pM |  | C#Cc1c(-c2cnc3ccccc3c2)c2c(N)ncnc2n1C12CCC(NC(=O)c3ccnnc3)(CC1)C2 [Example 3, N-(4-(4-Amino-6-ethynyl-5-(quinolin-3-yl)-7H-pyrrolo[2,3-d]pyrimidin-7-yl)bicyclo-[2.2.1]heptan-1-yl)pyridazine-4-carboxamide]
22 | 320 pM | 940 pM |  | C#Cc1c(-c2cnc3ccccc3c2)c2c(N)ncnc2n1C12CCC(NC(=O)c3ccno3)(CC1)C2 [Example 44]
23 |  | 490 pM |  | C#Cc1c(-c2cnc3ccccc3c2)c2c(N)ncnc2n1C12CCC(NC(=O)c3ccncc3)(CC1)C2 [Example 43]
24 | 102000 pM | 187000 pM |  | C=CC(=O)N1CC[C@@H](n2cc(-c3cnc4ccccc4c3)c3c(N)ncnc32)C1 [Comparative Example A, (R)-1-(3(4-Amino-5-(quinolin-3-yl)-7H-pyrrolo[2,3-d]pyrimidin-7-yl)pyrrolidin-1-yl) -prop-2-en-1-one, reference compound]
25 | 360 pM | 490 pM |  | C#Cc1c(-c2cnc3ccccc3c2)c2c(N)ncnc2n1C12CCC(NC(=O)c3ccc4ncnn4c3)(CC1)C2 [Example 16, N-(4-(4-Amino-6-ethynyl-5-(quinolin-3-yl)-7H-pyrrolo[2,3-d]pyrimidin-7-yl)bicyclo-[2.2.1]heptan-1-yl)-[1.2.4]triazolo[1,5-a]pyrimidin-6-carboxamide]
26 |  | 530 pM |  | C#Cc1c(-c2cnc3ccccc3c2)c2c(N)ncnc2n1C12CCC(NC(=O)c3cccnc3)(CC1)C2 [Example 45]
27 |  | 1000 pM |  | C#Cc1c(-c2cnc3ccccc3c2)c2c(N)ncnc2n1C12CCC(N3CCOCC3)(CC1)C2 [Example 9, 6-Ethynyl-7-(4-morpholinobicyclo[2.2.1]heptan-1-yl)-5-(quinolin-3-yl)-7H-pyrrolo[2,3-d]pyrimidine-4-amine]
